This passage reports insulin secretion results from patent publication US20250114431A1, “COMPOUND, COMPOSITION AND METHODS FOR LOWERING CIRCULATING GLUCOSE” (THE HONG KONG POLYTECHNIC UNIVERSITY, priority 2023, published 2025).

The subject of this assay is MIN6 pancreatic beta cells. In words: Glucose stimulated insulin secretion assay in MIN6 cells (mouse insulin ELISA). Format: cell-based. Particulars: 100 nM, positive control; FIG. 5A. The procedure: To verify that the glucose homeostasis is regulated through liver or hepatocytes by overexpression of Plac9 in an insulin-independent manner, an in vitro insulin secretion assay was performed on confluent pancreatic beta cells, MIN6, in each well treated by […] of Exendin-4 or different concentrations of recombinant Plac9 of mouse origin at 10, 100 and 1000 nM (n=8) and measured the insulin content of each well by a mouse insulin ELISA kit. […] A glucose uptake assay was performed on primary hepatocytes and hepatic cell line, HepG2, treated with different concentrations (from 0.125 or 0.25 to 1.0 μM) in the presence or absence of exogenous 10 nM insulin, and the results are shown in FIGS. 5B and 5C, respectively.
(An ELISA detects its analyte on a solid surface through an enzyme-linked reagent.)

With Exendin-4 [reference compound], the insulin secretion entry was “significantly induces insulin secretion”.
